ChEMBL document CHEMBL1649267, “Molecular epidemiology and mechanisms of carbapenem resistance in Pseudomonas aeruginosa” (2009)
Converted amounts (≈) assume the structure as drawn.

Key:
[1] = tested on: Pseudomonas aeruginosa; format: functional; details: isolate Paebeta-29
[2] = tested on: Pseudomonas aeruginosa; format: functional; details: isolate Paebeta-21
[3] = tested on: Pseudomonas aeruginosa; format: functional; details: isolate Paebeta-13
[4] = tested on: Pseudomonas aeruginosa; format: functional; details: isolate Paebeta-03
[5] = tested on: Pseudomonas aeruginosa; format: functional; details: isolate Paebeta-14
[6] = tested on: Pseudomonas aeruginosa; format: functional; details: isolate Paebeta-27
[7] = tested on: Pseudomonas aeruginosa; format: functional; details: isolate Paebeta-07
[8] = tested on: Pseudomonas aeruginosa; format: functional; details: isolate Paebeta-09
[9] = tested on: Pseudomonas aeruginosa; assay: microbe, parasite or virus in culture; details: isolate Paebeta-12
Description: Antibacterial activity against mexB, mexY and mexD expressing Pseudomonas aeruginosa isolate Paebeta-12 harboring A residue at 105 position in PDC- 2 and polymorphic OprD gene by Etest method in presence of cloxacillin

[10] = tested on: Pseudomonas aeruginosa; format: functional; details: isolate Paebeta-06
[11] = tested on: Pseudomonas aeruginosa; format: functional; details: isolate Paebeta-19
[12] = tested on: Pseudomonas aeruginosa; format: functional; details: isolate Paebeta-04
[13] = tested on: Pseudomonas aeruginosa; format: functional; details: isolate Paebeta-23
[14] = tested on: Pseudomonas aeruginosa; format: functional; details: isolate Paebeta-10
[15] = tested on: Pseudomonas aeruginosa; format: functional; details: isolate Paebeta-27; remark: listed apart in the source
[16] = tested on: Pseudomonas aeruginosa; format: functional; details: isolate Paebeta-23; remark: listed apart in the source
[17] = tested on: Pseudomonas aeruginosa; format: functional; details: isolate Paebeta-19; remark: listed apart in the source
[18] = tested on: Pseudomonas aeruginosa; format: functional; details: isolate Paebeta-31
[19] = tested on: Pseudomonas aeruginosa; format: functional; details: isolate Paebeta-25
[20] = tested on: Pseudomonas aeruginosa; format: functional; details: isolate Paebeta-16
[21] = tested on: Pseudomonas aeruginosa; format: functional; details: isolate Paebeta-20
[22] = tested on: Pseudomonas aeruginosa; format: functional; details: isolate Paebeta-18
[23] = tested on: Pseudomonas aeruginosa; format: functional; details: isolate Paebeta-26
[24] = tested on: Pseudomonas aeruginosa; format: functional; details: isolate Paebeta-29; remark: listed apart in the source
[25] = tested on: Pseudomonas aeruginosa; format: functional; details: isolate Paebeta-13; remark: listed apart in the source
[26] = tested on: Pseudomonas aeruginosa; format: functional; details: isolate Paebeta-06; remark: listed apart in the source
[27] = tested on: Pseudomonas aeruginosa; format: functional; details: isolate Paebeta-07; remark: listed apart in the source
[28] = tested on: Pseudomonas aeruginosa; format: functional; details: isolate Paebeta-28
[29] = tested on: Pseudomonas aeruginosa; format: functional; details: isolate Paebeta-05
[30] = tested on: Pseudomonas aeruginosa; format: functional; details: isolate Paebeta-04; remark: listed apart in the source
[31] = tested on: Pseudomonas aeruginosa; format: functional; details: isolate Paebeta-02
[32] = tested on: Pseudomonas aeruginosa; format: functional; details: isolate Paebeta-25; remark: listed apart in the source
[33] = tested on: Pseudomonas aeruginosa; format: functional; details: isolate Paebeta-31; remark: listed apart in the source
[34] = tested on: Pseudomonas aeruginosa; format: functional; details: isolate Paebeta-15
[35] = tested on: Pseudomonas aeruginosa; format: functional; details: isolate Paebeta-18; remark: listed apart in the source
[36] = tested on: Pseudomonas aeruginosa; format: functional; details: isolate Paebeta-12
[37] = tested on: Pseudomonas aeruginosa; format: functional; details: isolate Paebeta-11
[38] = tested on: Pseudomonas aeruginosa; format: functional; details: isolate Paebeta-20; remark: listed apart in the source
[39] = tested on: Pseudomonas aeruginosa; format: functional; details: isolate Paebeta-16; remark: listed apart in the source
[40] = tested on: Pseudomonas aeruginosa; format: functional; details: isolate Paebeta-30
[41] = tested on: Pseudomonas aeruginosa; format: functional; details: isolate Paebeta-32
[42] = tested on: Pseudomonas aeruginosa; format: functional; details: isolate Paebeta-26; remark: listed apart in the source
[43] = tested on: Pseudomonas aeruginosa; format: functional; details: isolate Paebeta-17
[44] = tested on: Pseudomonas aeruginosa; format: functional; details: isolate Paebeta-02; remark: listed apart in the source
[45] = tested on: Pseudomonas aeruginosa; format: functional; details: isolate Paebeta-22
[46] = tested on: Pseudomonas aeruginosa; format: functional; details: isolate Paebeta-08
[47] = tested on: Pseudomonas aeruginosa; format: functional; details: isolate Paebeta-01
[48] = tested on: Pseudomonas aeruginosa; format: functional; details: isolate Paebeta-11; remark: listed apart in the source
[49] = tested on: Pseudomonas aeruginosa; format: functional; details: isolate Paebeta-28; remark: listed apart in the source
[50] = tested on: Pseudomonas aeruginosa; format: functional; details: isolate Paebeta-01; remark: listed apart in the source
[51] = tested on: Pseudomonas aeruginosa; format: functional; details: isolate Paebeta-32; remark: listed apart in the source
[52] = tested on: Pseudomonas aeruginosa; format: functional; details: isolate Paebeta-14; remark: listed apart in the source
[53] = tested on: Pseudomonas aeruginosa; format: functional; details: isolate Paebeta-24
[54] = tested on: Pseudomonas aeruginosa; format: functional; details: isolate Paebeta-17; remark: listed apart in the source
[55] = tested on: Pseudomonas aeruginosa; format: functional; details: isolate Paebeta-09; remark: listed apart in the source
[56] = tested on: Pseudomonas aeruginosa; format: functional; details: isolate Paebeta-24; remark: listed apart in the source
[57] = tested on: Pseudomonas aeruginosa; format: functional; details: isolate Paebeta-15; remark: listed apart in the source
[58] = tested on: Pseudomonas aeruginosa; format: functional; details: isolate Paebeta-30; remark: listed apart in the source
[59] = tested on: Pseudomonas aeruginosa; format: functional; details: isolate Paebeta-10; remark: listed apart in the source
[60] = tested on: Pseudomonas aeruginosa; format: functional; details: isolate Paebeta-08; remark: listed apart in the source
[61] = tested on: Pseudomonas aeruginosa; format: functional; details: isolate Paebeta-03; remark: listed apart in the source
[62] = tested on: Pseudomonas aeruginosa; format: functional; details: isolate Paebeta-21; remark: listed apart in the source
[63] = tested on: Pseudomonas aeruginosa; format: functional; details: isolate Paebeta-05; remark: listed apart in the source
[64] = tested on: Pseudomonas aeruginosa; format: functional; details: isolate Paebeta-22; remark: listed apart in the source

In the case of CC(C)(O/N=C(\C(=O)N[C@@H]1C(=O)N2C(C(=O)[O-])=C(C[n+]3ccccc3)CS[C@H]12)c1csc(N)n1)C(=O)O [CEFTAZIDIME], the MIC [1] was 8 µg/mL (≈ 14.6 µM), the MIC [2] was 4 µg/mL (≈ 7.32 µM) and the MIC [3] was 4 µg/mL (≈ 7.32 µM). For the same compound, the MIC [4] was 16 µg/mL (≈ 29.3 µM), the MIC [5] was 2 µg/mL (≈ 3.66 µM) and the MIC [6] was 4 µg/mL (≈ 7.32 µM). It also gave an MIC [7] of 2 µg/mL (≈ 3.66 µM), an MIC [8] of 2 µg/mL (≈ 3.66 µM) and an MIC [9] of 1 µg/mL (≈ 1.83 µM). It also gave an MIC [10] of 2 µg/mL (≈ 3.66 µM), an MIC [11] of 8 µg/mL (≈ 14.6 µM) and an MIC [12] of 32 µg/mL (≈ 58.5 µM). The MIC [13] was 8 µg/mL (≈ 14.6 µM), the MIC [14] was 16 µg/mL (≈ 29.3 µM) and the MIC [15] was 16 µg/mL (≈ 29.3 µM). For the same compound, the MIC [16] was 64 µg/mL (≈ 117 µM), the MIC [17] was 4 µg/mL (≈ 7.32 µM) and the MIC [18] was 16 µg/mL (≈ 29.3 µM). It also gave an MIC [19] of 32 µg/mL (≈ 58.5 µM), an MIC [20] of 32 µg/mL (≈ 58.5 µM) and an MIC [21] of 8 µg/mL (≈ 14.6 µM). The MIC [22] was 128 µg/mL (≈ 234 µM), the MIC [23] was 4 µg/mL (≈ 7.32 µM) and the MIC [24] was 8 µg/mL (≈ 14.6 µM). The MIC [25] was 0.12 µg/mL (≈ 0.22 µM), the MIC [26] was 16 µg/mL (≈ 29.3 µM) and the MIC [27] was 16 µg/mL (≈ 29.3 µM). It also gave an MIC [28] of 16 µg/mL (≈ 29.3 µM), an MIC [29] of 32 µg/mL (≈ 58.5 µM) and an MIC [30] of 4 µg/mL (≈ 7.32 µM). For the same compound, the MIC [31] was 8 µg/mL (≈ 14.6 µM), the MIC [32] was 4 µg/mL (≈ 7.32 µM) and the MIC [33] was 32 µg/mL (≈ 58.5 µM). For the same compound, the MIC [34] was 8 µg/mL (≈ 14.6 µM), the MIC [35] was 32 µg/mL (≈ 58.5 µM) and the MIC [36] was 16 µg/mL (≈ 29.3 µM). It also gave an MIC [37] of 16 µg/mL (≈ 29.3 µM), an MIC [38] of 1 µg/mL (≈ 1.83 µM) and an MIC [39] of 4 µg/mL (≈ 7.32 µM). It also gave an MIC [40] of 8 µg/mL (≈ 14.6 µM), an MIC [41] of 32 µg/mL (≈ 58.5 µM) and an MIC [42] of 32 µg/mL (≈ 58.5 µM). The MIC [43] was 8 µg/mL (≈ 14.6 µM), the MIC [44] was 8 µg/mL (≈ 14.6 µM) and the MIC [45] was 16 µg/mL (≈ 29.3 µM). It also gave an MIC [46] of 16 µg/mL (≈ 29.3 µM), an MIC [47] of 8 µg/mL (≈ 14.6 µM) and an MIC [48] of 2 µg/mL (≈ 3.66 µM). For the same compound, the MIC [49] was 2 µg/mL (≈ 3.66 µM), the MIC [50] was 8 µg/mL (≈ 14.6 µM) and the MIC [51] was 8 µg/mL (≈ 14.6 µM). The MIC [52] was 16 µg/mL (≈ 29.3 µM), the MIC [53] was 64 µg/mL (≈ 117 µM) and the MIC [54] was 64 µg/mL (≈ 117 µM). For the same compound, the MIC [55] was 16 µg/mL (≈ 29.3 µM), the MIC [56] was 16 µg/mL (≈ 29.3 µM) and the MIC [57] was 32 µg/mL (≈ 58.5 µM). For the same compound, the MIC [58] was 8 µg/mL (≈ 14.6 µM), the MIC [59] was 2 µg/mL (≈ 3.66 µM) and the MIC [60] was 2 µg/mL (≈ 3.66 µM). The MIC [61] was 2 µg/mL (≈ 3.66 µM), the MIC [62] was 32 µg/mL (≈ 58.5 µM) and the MIC [63] was 32 µg/mL (≈ 58.5 µM). For the same compound, the MIC [64] was 1 µg/mL (≈ 1.83 µM).
